Reference: PubChem BioAssay (NCI)
Values joined by “and” are separate entries in the source; they are usually repeats but may differ in a detail not shown here. Equal entries are not always repeated.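 Method: 48-hour compound exposure of cells in 96-well plates, five concentrations, linear interpolation of endpoints. The concentration for 50% growth inhibition is given as GI50. The concentration for full growth arrest is given as TGI.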

How the values were obtained:
Assay in all cases: NCI tumour cell line growth inhibition, 48 h
[1] = test system: EKVX NSCLC
[2] = test system: SF-539 CNS
[3] = test system: COLO 205 colon
[4] = test system: RXF 393 renal
[5] = test system: TK-10 renal
[6] = test system: U251 CNS
[7] = test system: DU-145 prostate
[8] = test system: SK-OV-3 ovarian
[9] = test system: OVCAR-4 ovarian
[10] = test system: SNB-75 CNS

Compound	GI50 [1]	TGI [1]	GI50 [2]	TGI [2]	GI50 [3]	TGI [3]	GI50 [4]	TGI [4]	GI50 [5]	TGI [5]	GI50 [6]	TGI [6]	GI50 [7]	TGI [7]	TGI [8]	TGI [9]	TGI [10]	GI50 [8]	GI50 [9]	GI50 [10]
Cc1ccc(/C=C2/SC(Nc3nc(-c4nc(NC5=NC(=O)/C(=C\c6ccc(C)cc6)S5)sc4C)c(C)s3)=NC2=O)cc1	0.0339 µM	0.15 µM	0.379 µM	1.84 µM	35.2 µM	> 50 µM	0.282 µM	3.65 µM	0.288 µM	1.21 µM	0.322 µM	38.9 µM	0.531 µM	> 9.82 µM						
NNC(=O)CCC(=O)Nc1cc(Cl)c(Cl)cc1Cl				> 100 µM		> 100 µM		> 100 µM		> 100 µM		> 100 µM			> 100 µM	> 100 µM	> 100 µM			
COc1ccc(C2=NN(C(=O)COc3ccc(Cl)cc3)C(O)(c3ccc(Cl)cc3)C2)cc1 (stereo unspecified)				> 100 µM		> 100 µM				> 100 µM		> 100 µM			> 100 µM	> 100 µM	> 100 µM			
COCC1N=C(c2cc(OC)c(OC)c(OC)c2-c2cc3c(cc2C2OCCCO2)OCO3)O[C@H]1c1ccccc1 (stereo partly specified)		> 100 µM		> 100 µM				> 100 µM		> 100 µM		> 100 µM			> 100 µM	> 100 µM	> 100 µM			
CC1CC(c2cccc3c2OCO3)=Nc2ccccc2S1 (stereo unspecified)		> 100 µM		> 100 µM		> 100 µM		> 100 µM		> 100 µM					> 100 µM	> 100 µM	> 100 µM			
CC(/C(=N/NC(=O)C(N)=O)c1c(Cl)ccc(Cl)c1O)C1(O)C(=O)Nc2ccccc21 (stereo unspecified)		> 100 µM		> 100 µM		49.1 µM		> 100 µM		> 100 µM		> 100 µM			> 100 µM	92.3 µM	> 100 µM			
CS(=O)(=O)OCCn1cnc2nc(NC(=O)c3ccccc3)[nH]c(=O)c21		> 100 µM		> 100 µM		> 100 µM		> 100 µM		> 100 µM		> 100 µM			> 100 µM	> 100 µM	> 100 µM			
CC1=C(C(=O)Nc2cccc(Cl)c2)C(c2ccc([N+](=O)[O-])cc2)C(C(=O)Nc2cccc(Cl)c2)=C(C)N1		> 100 µM		> 100 µM		> 100 µM		58.7 µM		> 100 µM		56 µM			48.9 µM	> 100 µM	91.1 µM			
O=c1[nH]nc2ccccc2c1Cl		15.5 µM		29.9 µM		23.4 µM				33 µM		29.2 µM			33.5 µM	23.8 µM	47.1 µM			
CCOC(=O)C1=C(NNC(=O)Cc2ccccc2)CSC1=Nc1ccccc1		> 100 µM		> 100 µM		> 100 µM		> 100 µM		> 100 µM		> 100 µM			> 100 µM	> 100 µM	> 100 µM			
C=C1C(=O)OC2C1CC[C@H](C)C13OC(=O)CC1[C@@]23C (stereo partly specified)		> 100 µM		> 100 µM		> 100 µM		> 100 µM		> 100 µM		> 100 µM			> 100 µM		> 100 µM			
CN(CC(=O)O)c1ccc(/C=C/c2ccnc3ccccc23)cc1		30.8 µM		> 100 µM		34.3 µM		49.8 µM		47.7 µM		75.2 µM		> 100 µM	91.6 µM		86.8 µM			
O=c1c(Sc2c(O)c3ccccc3c3ccccc3c2=O)c(O)c2ccccc2c2ccccc12		> 100 µM		> 100 µM		> 100 µM		> 100 µM		> 100 µM		84 µM			> 100 µM	> 100 µM	> 100 µM			
COc1ccc(-c2cnnn2-c2cc(OC)c3c(c2)OCO3)cc1			0.116 µM	0.411 µM	0.0578 µM	0.52 µM			25 µM	> 100 µM	0.231 µM	> 100 µM	0.291 µM		> 100 µM	> 100 µM	> 100 µM	0.348 µM	5.9 µM	0.0741 µM
Cn1ccc2c(c1=O)C(=O)c1nccc3c1c-2nc1ccccc13	1.65 µM	3.16 µM	1.83 µM	3.42 µM	1.57 µM	2.96 µM	1.49 µM	2.95 µM			1.38 µM	2.79 µM			3.15 µM	2.6 µM	2.43 µM	1.74 µM	1.31 µM	1.17 µM
Fc1cccc2cc3ccc4cccc5ccc(c12)c3c45		> 100 µM		> 100 µM		> 100 µM		> 100 µM		> 100 µM		> 100 µM			> 100 µM	> 100 µM	> 100 µM			
CC(=O)Nc1ccc(/C=N\N2C(=O)c3ccccc3C2=O)cc1		> 100 µM		> 100 µM				> 100 µM		> 100 µM						> 100 µM	> 100 µM			
CCc1ccccc1N1CCN(C(=O)c2cc(OC)c(OC)c(OC)c2)CC1		20.9 µM		0.12 µM		0.108 µM				> 93.3 µM		4.14 µM		0.715 µM	4.55 µM		> 100 µM			
COC(C(=O)C(O)C(C)O)C1Cc2cc3cc(OC4CC(OC(C)=O)C(OC5CC(O)C(OC)C(C)O5)C(C)O4)cc(O)c3c(O)c2C(=O)C1OC1CC(OC2CC(OC3CC(C)(O)C(OC(=O)C(C)C)C(C)O3)C(O)C(C)O2)C(O)C(C)O1 (stereo unspecified)	0.0723 µM		0.000553 µM											0.569 µM			0.0626 µM and 0.0109 µM and 0.0075 µM	0.0217 µM and 0.0423 µM		0.00157 µM
CN(C)CCNC(=O)c1ccc(C(=O)NCCN(C)C)c2nc3ccccc3cc12		6.89 µM		2.01 µM		2.39 µM		2.09 µM		5.08 µM		7.85 µM			7.5 µM	3.52 µM	3.46 µM			
CCCCCCCCC(=O)N(C)C1C2CN3CCC(O2)C13 (stereo unspecified)		> 100 µM		> 100 µM		> 100 µM		> 100 µM		> 100 µM		> 100 µM			> 100 µM	> 100 µM	> 100 µM			
O=C1/C(=C/c2ccc([N+](=O)[O-])o2)Oc2ccc(Br)cc21			1.89 µM	4.19 µM	2.83 µM	7.32 µM	1.68 µM	3.21 µM	2.11 µM	3.88 µM	14.9 µM	28.7 µM	9.31 µM	21.1 µM	32.2 µM	6.18 µM	52.9 µM	17.6 µM	2.37 µM	15.2 µM
